Each structure is given as a SMILES string.

Format in all cases: in vivo
Data set [1] deals with Yellow Fever Mosquito (Aedes aegypti, AEDSAE). Description: Bioassay on Yellow Fever Mosquito (YFM) larvae, 96-well plate. To be noted: about 1 day-old larvae, room temperature, 3 days, scored on mortality. The essentials: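 Aedes aegypti larvae (about 1 day old) in liver-powder water were added to plates dispensed from DMSO master plates (4000 ppm stock) diluted with 90:10 water/acetone; six replicate plates per master. Lidded plates were held at room temperature for 3 days, then each well was scored for mortality.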

In data set [2] the test system is Cabbage Looper (Trichoplusia ni, TRIPNI). The experiment in a line: Bioassay on Cabbage Looper (CL), 128-well diet tray assay. To be noted: 168 h, 50 μg/cm^2 on artificial diet, second instar larvae, 25° C., five to seven days, average of eight wells, read-out: CL % Control (or Mortality) rating. The essentials: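 Second-instar T. ni larvae (one to five per well) were placed on artificial diet treated with 50 μg/cm^2 compound, applied in 90:10 acetone-water and dried. Trays were held five to seven days at 25 °C under 14:10 light-dark. Percent mortality per well was averaged over eight wells.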

For data set [3], the system named is Green Peach Aphid (Myzus persicae, MYZUPE). The experiment in a line: Bioassay on Green Peach Aphid (GPA), foliar spray on cabbage seedlings. To be noted: 72 h, 200 ppm spray on infested cabbage seedlings, three days, Abbott corrected % control, read-out: GPA % Control (or Mortality) rating. How it is done:
Certain molecules disclosed in this document were tested against GPA using procedures described in the following example. In the reporting of the results, the “GPA & YFM Rating Table” was used (See Table Section).
Cabbage seedlings grown in 3-inch pots, with 2-3 small (3-5 cm) true leaves, were used as test substrate. The seedlings were infested with 20-50 GPA (wingless adult and nymph stages) one day prior to chemical application. Four pots with individual seedlings were used for each treatment. Test molecules (2 mg) were dissolved in 2 mL of acetone/methanol (1:1) solvent, forming stock solutions of 1000 ppm test molecule. The stock solutions were diluted 5× with 0.025% Tween 20 in water to obtain the solution at 200 ppm test molecule. A hand-held aspirator-type sprayer was used for spraying a solution to both sides of […] leaves until runoff. Reference plants (solvent check) were sprayed with the diluent only containing 20% by volume of acetone/methanol (1:1) solvent. Treated plants were held in a holding room for three days at approximately 25° C. and ambient relative humidity (RH) prior to grading. Evaluation was conducted by counting the number of live aphids per plant under a microscope. Percent control was measured using Abbott's correction formula (W. S. Abbott, “A Method of Computing the Effectiveness of an Insecticide” J. Econ. Entomol. 18 (1925), pp. 265-267) as follows. Corrected % Control=100*(X−Y)/X where X=No. of live aphids on solvent check plants and Y=No. of live aphids on treated plants. The results are indicated in the table entitled “Table ABC: Biological Results” (See Table Section).

The test system of data set [4] is Beet Armyworm (Spodoptera exigua, LAPHEG). The experiment in a line: Bioassay on Beet Armyworm (BAW), 128-well diet tray assay. To be noted: 168 h, 50 μg/cm^2 on artificial diet, second instar larvae, 25° C., five to seven days, average of eight wells, read-out: BAW % Control (or Mortality) rating. In a few lines:
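Artificial diet surface-treated with 50 μg/cm^2 test molecule in 90:10 acetone-water, dried, then infested with one to five second instar larvae per well. Held covered and vented at 25° C., 14:10 light-dark for five to seven days; percent mortality recorded per well and averaged over eight wells.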

Turning to `O=C(NCCCF)c1cc(NC(=O)[C@H]2[C@H](c3cc(Cl)cc(Cl)c3)C2(Cl)Cl)ccc1Cl` (relative stereo) [F44, trans-2-Chloro-5-(2,2-dichloro-3-(3,5-dichlorophenyl)cyclopropane-1-carboxamido)-N-(3-fluoropropyl)benzamide], the “YFM % Control (or Mortality) rating” value in data set [1] is given as “A (80-100)”. Moreover, the mortality at 50 µg/cm2 in data set [2] and in data set [4] was 50 to 100% in each case. Also, the mortality at 200 ppm in data set [3] is 80 to 100%.
On to `CCCCNC(=O)c1cc(NC(=O)[C@H]2[C@H](c3cc(Cl)cc(Cl)c3)C2(Cl)Cl)ccc1Cl` (relative stereo) [F45, trans-N-Butyl-2-chloro-5-(2,2-dichloro-3-(3,5-dichlorophenyl)cyclopropane-1-carboxamido)benzamide], for which the “YFM % Control (or Mortality) rating” value in data set [1] is “A (80-100)”. For the same molecule, the mortality at 50 µg/cm2 in data set [2] and in data set [4] was 50 to 100% in each case. Further, in data set [3], the mortality at 200 ppm was in the range of 80 to 100%.
Take `CCNC(=O)c1cc(NC(=O)[C@H]2[C@H](c3cc(Cl)cc(Cl)c3)C2(Cl)Cl)ccc1Cl` (relative stereo) [F46, trans-2-Chloro-5-(2,2-dichloro-3-(3,5-dichlorophenyl)cyclopropane-1-carboxamido)-N-ethylbenzamide]: the “YFM % Control (or Mortality) rating” value in data set [1] is “A (80-100)”. Further, the mortality at 50 µg/cm2 in data set [2] and in data set [4] was 50 to 100% in each case. The mortality at 200 ppm in data set [3] was 80 to 100%.
For the molecule `C#CCNC(=O)c1cc(NC(=O)[C@H]2[C@H](c3cc(Cl)cc(Cl)c3)C2(Cl)Cl)ccc1Cl` (relative stereo) [F47, trans-2-Chloro-5-(2,2-dichloro-3-(3,5-dichlorophenyl)cyclopropane-1-carboxamido)-N-(prop-2-yn-1-yl)benzamide], the “YFM % Control (or Mortality) rating” value in data set [1] is given as “A (80-100)”. In addition, the mortality at 50 µg/cm2 in data set [2] and in data set [4] was 50 to 100% each time. In addition, in data set [3], the mortality at 200 ppm lay in the range of 80 to 100%.
Regarding `O=C(NCC(F)F)c1cc(NC(=O)[C@H]2[C@H](c3cc(Cl)cc(Cl)c3)C2(Cl)Cl)ccc1Cl` (relative stereo) [F48, trans-2-Chloro-5-(2,2-dichloro-3-(3,5-dichlorophenyl)cyclopropane-1-carboxamido)-N-(2,2-difluoroethyl)benzamide], the “YFM % Control (or Mortality) rating” value in data set [1] is reported as “B (More than 0-Less than 80)”. The mortality at 50 µg/cm2 in data set [2] and in data set [4] was 50 to 100% in each case. Further, in data set [3], the mortality at 200 ppm was 80 to 100%.
Consider `O=C(NCC(F)(F)C(F)(F)F)c1cc(NC(=O)[C@H]2[C@H](c3cc(Cl)cc(Cl)c3)C2(Cl)Cl)ccc1Cl` (relative stereo) [F49, trans-2-Chloro-5-(2,2-dichloro-3-(3,5-dichlorophenyl)cyclopropane-1-carboxamido)-N-(2,2,3,3,3-pentafluoropropyl)benzamide], for which the “YFM % Control (or Mortality) rating” value in data set [1] is on record as “A (80-100)”. Besides, the mortality at 50 µg/cm2 in data set [2] and in data set [4] was 50 to 100% in each case. Moreover, the mortality at 200 ppm in data set [3] was 80 to 100%.
As for `CC(=O)NCCNC(=O)c1cc(NC(=O)[C@H]2[C@H](c3cc(Cl)cc(Cl)c3)C2(Cl)Cl)ccc1Cl` (relative stereo) [F55, trans-N-(2-Acetamidoethyl)-2-chloro-5-(2,2-dichloro-3-(3,5-dichlorophenyl)cyclopropane-1-carboxamido)benzamide], the “YFM % Control (or Mortality) rating” value in data set [1] was “B (More than 0-Less than 80)”. The mortality at 50 µg/cm2 in data set [2] and in data set [4] was 50 to 100% in each case. Also, the mortality at 200 ppm in data set [3] lay within 80 to 100%.
Regarding `CCCNC(=O)c1cc(NC(=O)[C@H]2[C@H](c3cc(Cl)cc(Cl)c3)C2(Cl)Cl)ccc1Cl` (relative stereo) [F56, trans-2-Chloro-5-(2,2-dichloro-3-(3,5-dichlorophenyl)cyclopropane-1-carboxamido)-N-propylbenzamide], in data set [1], the “YFM % Control (or Mortality) rating” value was “A (80-100)”. Moreover, the mortality at 50 µg/cm2 in data set [2] and in data set [4] was 50 to 100% in each case. Besides, the mortality at 200 ppm in data set [3] is 80 to 100%.
With `CN(CC(F)(F)F)C(=O)c1cc(NC(=O)[C@H]2[C@H](c3cc(Cl)cc(Cl)c3)C2(Cl)Cl)ccc1Cl` (relative stereo) [F59, trans-2-Chloro-5-(2,2-dichloro-3-(3,5-dichlorophenyl)cyclopropane-1-carboxamido)-N-methyl-N-(2,2,2-trifluoroethyl)benzamide], the “YFM % Control (or Mortality) rating” value in data set [1] is recorded as “A (80-100)”. The mortality at 50 µg/cm2 in data set [2] and in data set [4] was 50 to 100% throughout. In data set [3], the mortality at 200 ppm was in the range of 0 to 80%.
In the case of `CS(=O)(=O)CCNC(=O)c1cc(NC(=O)[C@H]2[C@H](c3cc(Cl)cc(Cl)c3)C2(Cl)Cl)ccc1Cl` (relative stereo) [F75, trans-2-chloro-5-(2,2-dichloro-3-(3,5-dichlorophenyl)cyclopropane-1-carboxamido)-N-(2-(methylsulfonyl)ethyl)benzamide], in data set [1], the “YFM % Control (or Mortality) rating” value is reported as “A (80-100)”. In addition, the mortality at 50 µg/cm2 in data set [2] and in data set [4] was 50 to 100% in each case. Also, in data set [3], the mortality at 200 ppm lay in the range of 80 to 100%.
For `O=C(NCC(O)C(F)(F)F)c1cc(NC(=O)[C@H]2[C@H](c3cc(Cl)cc(Cl)c3)C2(Cl)Cl)ccc1Cl` (relative stereo) [PF16, trans-2-Chloro-5-(2,2-dichloro-3-(3,5-dichlorophenyl)cyclopropane-1-carboxamido)-N-(3,3,3-trifluoro-2-hydroxypropyl)benzamide], in data set [1], the “YFM % Control (or Mortality) rating” value is given as “A (80-100)”. For the same molecule, the mortality at 50 µg/cm2 in data set [2] and in data set [4] was 50 to 100% each time. For the same molecule, the mortality at 200 ppm in data set [3] was in the range of 80 to 100%.
For the molecule `C[C@H](CSCC(F)(F)F)NC(=O)c1cc(NC(=O)C2C(c3cc(Cl)cc(Cl)c3)C2(Cl)Cl)ccc1Cl` (stereo in doubt) [PF3, trans-2-Chloro-5-(2,2-dichloro-3-(3,5-dichlorophenyl)cyclopropane-1-carboxamido)-N—((R)-1-((2,2,2-trifluoroethyl)thio)propan-2-yl)benzamide], the “YFM % Control (or Mortality) rating” value in data set [1] is recorded as “B (More than 0-Less than 80)”. The mortality at 50 µg/cm2 in data set [2] and in data set [4] was 50 to 100% throughout. In data set [3], the mortality at 200 ppm was in the range of 80 to 100%.
Regarding `C[C@H](CS(=O)(=O)CC(F)(F)F)NC(=O)c1cc(NC(=O)C2C(c3cc(Cl)cc(Cl)c3)C2(Cl)Cl)ccc1Cl` (stereo in doubt) [PF6, trans-2-Chloro-5-(2,2-dichloro-3-(3,5-dichlorophenyl)cyclopropane-1-carboxamido)-N—((R)-1-((2,2,2-trifluoroethyl)sulfonyl)propan-2-yl)benzamide], in data set [1], the “YFM % Control (or Mortality) rating” value is on record as “A (80-100)”. Also, the mortality at 50 µg/cm2 in data set [2] and in data set [4] was 50 to 100% in each case. For the same molecule, the mortality at 200 ppm in data set [3] fell in the range of 0 to 80%.
Take `O=C(NOCC1CC1)c1cc(NC(=O)C2C(c3cc(Cl)c(Cl)c(Cl)c3)C2(Cl)Cl)ccc1Cl` (stereo not drawn) [F15, trans-N-2-Chloro-N-(cyclopropylmethoxy)-5-(2,2-dichloro-3-(3,4,5-trichlorophenyl)cyclopropane-1-carboxamido)benzamide]: the “YFM % Control (or Mortality) rating” value in data set [1] was “A (80-100)”. In addition, the mortality at 50 µg/cm2 in data set [2] and in data set [4] was 50 to 100% each time. Besides, the mortality at 200 ppm in data set [3] is 80 to 100%.
As to `O=C(NOCC1CC1)c1cc(NC(=O)C2C(c3cc(Cl)cc(Cl)c3)C2(Cl)Cl)ccc1Cl` (stereo not drawn) [F16, trans-N-2-Chloro-N-(cyclopropylmethoxy)-5-(2,2-dichloro-3-(3,5-dichlorophenyl)cyclopropane-1-carboxamido)benzamide], the “YFM % Control (or Mortality) rating” value in data set [1] is recorded as “A (80-100)”. In addition, the mortality at 50 µg/cm2 in data set [2] and in data set [4] was 50 to 100% each time. The mortality at 200 ppm in data set [3] fell in the range of 0 to 80%.
As to `O=C(NOCc1ccc(F)cc1)c1cc(NC(=O)C2C(c3cc(Cl)cc(Cl)c3)C2(Cl)Cl)ccc1Cl` (stereo not drawn) [F17, trans-N-2-Chloro-5-(2,2-dichloro-3-(3,5-dichlorophenyl)cyclopropane-1-carboxamido)-N-((4-fluorobenzyl)oxy)benzamide], the “YFM % Control (or Mortality) rating” value in data set [1] is recorded as “A (80-100)”. Moreover, the mortality at 50 µg/cm2 in data set [2] and in data set [4] was 50 to 100% in each case. Besides, the mortality at 200 ppm in data set [3] was 0 to 80%.

Source of the values: patent publication US9795140B2, “Molecules having pesticidal utility, and intermediates, compositions, and processes, related thereto” (priority 2015, dated 2017).
